Source: PubChem BioAssay (NCI)
Where “and” joins values, the source holds several entries; their conditions need not be identical. Identical values can stand only once.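 48-hour exposure; five concentrations; linearly interpolated endpoints. GI50 marks 50% less growth. TGI: concentration producing complete growth inhibition.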

Experiments:
Test in all cases: DTP human tumour cell line panel, 48 h
SN12C renal = tested on: SN12C renal
SNB-19 CNS = tested on: SNB-19 CNS
MDA-N = tested on: MDA-N
TK-10 renal = tested on: TK-10 renal
ACHN renal = tested on: ACHN renal
MOLT-4 leukemia = tested on: MOLT-4 leukemia

Compound | TGI (SN12C renal) [µM] | TGI (SNB-19 CNS) | TGI (MDA-N) [µM] | TGI (TK-10 renal) | TGI (ACHN renal) | TGI (MOLT-4 leukemia) | GI50 (TK-10 renal) [µM] | GI50 (ACHN renal) [µM]
Cn1cc2c(=O)n3ncn(-c4ccc(Br)cc4)c3nc2n1 | > 100 | > 100 µM | > 100 | > 100 µM | > 100 µM | > 100 µM | – | –
CC1=NN2C(=O)CC(=O)N=C2S1 | > 100 | > 100 µM | > 100 | > 100 µM | > 100 µM | > 100 µM | – | –
COc1ccc(C2SC(N)=Nc3c2c(C)nn3C(=O)c2ccc(Cl)cc2)cc1 (configuration not stated) | > 10 | > 10 µM | > 10 | > 10 µM | > 10 µM | > 10 µM | – | –
CC1(C)C=C(/C=N/Nc2ccc(Br)cc2)C(C#N)=C(O)C1(C#N)C#N | > 100 | > 100 µM | > 100 | > 100 µM | > 100 µM | 89.8 µM | – | –
CCOC(=O)c1nnsc1NC(=O)Nc1ccc(Cl)cc1 | > 100 | > 100 µM | > 100 | > 100 µM | > 100 µM | > 100 µM | – | –
COc1cc(C)cc2c1C(=O)C(Br)=CC2=O | 30.9 | 30.2 µM | 8.16 | 5.9 µM | 6.96 µM | 5.19 µM | – | –
CC(=O)n1nc(-c2nc3ccccc3nc2Cl)cc1Cl | > 65.9 | > 92 µM | 24.2 | > 100 µM | 28.5 µM | 14.3 µM | – | –
CC1(C)C=[N+]([O-])C(C)(C)N1 | > 100 | > 100 µM | > 100 | > 100 µM | > 100 µM | > 100 µM | – | –
CC1(C)[C@@H]2C[C@H]1C(Cc1ccc(C[C@H]3c4cc(-c5ccccn5)ncc4[C@H]4C[C@@H]3C4(C)C)cc1)c1cc(-c3ccccn3)ncc12 (some centres not stated) | 23.3 | > 100 µM | – | > 100 µM | > 100 µM | – | – | –
CO/C(=N\N=C\c1ccc(OC)cc1OC)c1ccncc1 | > 10 | > 10 µM | – | > 10 µM | > 10 µM | > 10 µM | – | –
COc1ccc(-n2c3c(c4cc(O)ccc42)C(=O)c2ccccc2C3=O)cc1 | 92.9 | > 100 µM | > 100 | 31.1 µM | 56.7 µM | > 100 µM | – | –
C[C@H]1C(OCCOC2O[C@@H]3O[C@@]4(C)CC[C@H]5[C@H](C)CCC([C@H]2C)[C@@]35O4)O[C@@H]2O[C@@]3(C)CC[C@H]4[C@H](C)CCC1[C@@]24O3 (some centres not stated) | 52.6 | > 100 µM | > 100 | – | > 100 µM | > 100 µM | – | –
CN(C)CCOC1(Cc2ccc(Cl)cc2Cl)CCC(C(C)(C)C)CC1 (configuration not stated) | 3.32 | 3.44 µM and 3.74 µM | 3.31 | 4.99 µM and 2.75 µM | 5.28 µM and 4.05 µM | 4.72 µM and 4.23 µM | 2.02 | 1.99
COc1cccc(-c2cccc(SC)n2)n1 | > 100 | > 100 µM | > 100 | > 100 µM | > 100 µM | > 100 µM | – | –
CO[C@@](c1ccccc1)(c1nc(C#N)c(N)o1)C(F)(F)F | > 100 | > 100 µM | > 100 | > 100 µM | > 100 µM | > 100 µM | – | –
N#CC1=C(C#N)/C(=C(\C#N)C(C#N)C#N)N=C1N | > 100 | > 100 µM | 30.3 | > 68.3 µM | > 100 µM | 64.4 µM | – | –
CC1=CC2(O)OC3(CC2=C(C)C)C(C)CCC13 (configuration not stated) | > 100 | > 100 µM | > 100 | > 100 µM | > 100 µM | > 100 µM | – | –
Cn1c2ccccc2c(=O)c2c(O)cc3c(c21)C=CC1(CCCC1)O3 | > 100 | > 100 µM | – | > 100 µM | > 100 µM | > 100 µM | – | –
COC1C=C(NCC2(CO)CCC2)NC(N)=N1 (configuration not stated) | > 100 | > 100 µM | > 100 | – | – | > 100 µM | – | –
O=C1/C(=C/c2ccc(Cl)cc2)NC(=S)N1CN1CCOCC1 | > 100 | > 100 µM | > 100 | > 100 µM | > 100 µM | > 100 µM | – | –
CCC(CC)C(=O)OC[n+]1cccc(-c2c(COC(=O)NC(C)C)c(COC(=O)NC(C)C)c3n2CCC3)c1 | > 100 | > 100 µM | > 100 | > 100 µM | > 100 µM | > 100 µM | – | –
CC(=O)O[C@H]1C(=O)[C@@]2(C)[C@H]([C@H](OC(=O)c3ccc([N+](=O)[O-])cc3)[C@]3(O)C[C@H](OC(=O)[C@H](O)[C@@H](NC(=O)c4ccccc4)c4ccccc4)C(C)=C1C3(C)C)[C@]1(OC(C)=O)CO[C@@H]1C[C@@H]2O | > 25 | > 25 µM | > 25 | > 25 µM | > 25 µM | > 25 µM | – | –
COc1ccc2c(c1)N(C(C)=O)CN1C(=O)CCC21 (configuration not stated) | > 100 | > 100 µM | > 100 | > 100 µM | > 100 µM | > 100 µM | – | –
O=c1oc2ccccc2cc1-c1nnc(-c2ccccc2)s1 | > 100 | > 84.7 µM | > 78.1 | > 53.8 µM | > 100 µM | > 100 µM | – | –
CCOC(=O)C1=C(C)N(C)C(=S)NC1c1cccc(O)c1 (configuration not stated) | > 100 | > 100 µM | 33 | > 100 µM | > 100 µM | > 100 µM | – | –
NC1=CC(C(=O)c2ccncc2)c2nc3ccccc3nc21 (configuration not stated) | > 100 | > 100 µM | > 100 | > 100 µM | > 100 µM | > 100 µM | – | –
CCOC(=O)c1cc(C2CCN(CC(C)CC)C2=S)c(C(=O)/C=C(/C)N)[nH]1 (configuration not stated) | > 50 | > 50 µM | > 50 | > 50 µM | > 50 µM | > 50 µM | – | –
Cc1ccc(S(=O)(=O)NC(=O)NCC(=O)NCC(=O)O)cc1 | – | > 100 µM | > 100 | > 100 µM | > 100 µM | > 100 µM | – | –
COc1ccc(CNc2nc(NCc3ccc(OC)cc3)nc(NC(C)C)n2)cc1 | – | > 100 µM | 10.3 | 70.4 µM | 59.1 µM | > 100 µM | – | –
